Test results as given in patent publication US10633379B2, “Bromodomain inhibitors” (AbbVie Inc., priority 2016, dated 2020).
pKi: −log10 of the molar value.

Legend:
BRD4 (BDI_K57-E168) = BRD4 (BDI_K57-E168) (Homo sapiens (Human), UniProt O60885); test: TR-FRET bromodomain binding assay, BRD4 BDI; conditions: mean Ki, calculated from IC50, probe Kd and probe concentration
Method in brief: (§1)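 Probe displacement measured by TR-FRET after 1 h at room temperature, in 20 mM sodium phosphate pH 6.0 and 2% DMSO. BDI used 12 nM protein with 100 nM probe, BDII 4 nM with 30 nM probe, each with 1 nM europium antibody. Ki derived from fitted IC50, probe Kd and probe level.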

BRD4 (BDII_E352-M457) = BRD4 (BDII_E352-M457) (Homo sapiens (Human), UniProt O60885); test: TR-FRET bromodomain binding assay, BRD4 BDII; conditions: mean Ki, calculated from IC50, probe Kd and probe concentration
Method in brief: as §1

[1] = Xenograft tumor growth inhibition assay, SKM-1 (AML); assay type: in vivo, Female SCID Beige mice; conditions: female, SCID Beige, in vivo, mouse SKM-1 xenograft, oral, read-out: AUC, mouse efficacy, AML (SKM-1)
[2] = system: SKM-1_FP1 xenograft tumors; test: as above; assay type: in vivo, Female SCID Beige mice; conditions: mouse SKM-1 xenograft, oral
[3] = Xenograft tumor growth inhibition assay, LNCaP (prostate); assay type: in vivo, Male NSG mice; conditions: male, NSG, in vivo, mouse LNCaP xenograft, oral, read-out: AUC, mouse efficacy, Prostate (LNCaP)
Description: (§2) The effect of compound of Example 32, 35 and Compound X to inhibit the growth of SKM-1_FP1 and LNCaP-FGC xenograft tumors was evaluated. Female SCID Beige mice (Charles River) were utilized for the SKM-1_FP1 flank xenograft model. Male NSG mice (JAX Labs) were used for the LNCaP-FGC study. Cells were suspended in PBS, mixed with Matrigel (phenol red free, Becton Dickinson Biosciences Discovery Labware) in a ratio of 1:4 (V/V) and inoculated subcutaneously into the flank (five million cells per site) of the mice. Inoculated mice were randomized into groups and treatment was initiated when mean tumor volume was 0.2-0.25 cm^3. The compounds were administered orally in (volume %): 1.5% DMSO, 30% PEG 400, and 68.5% Phosol 53 MCT. Tumor growth in the flank was assessed by measuring tumor size with calipers and calculating volume using the formula (L×W^2/2). Study groups were terminated prior to tumor volume reaching 3 cm^3. Inhibition of tumor growth was assessed at the time the vehicle-treated group was terminated by calculating the ratio of the mean volume of the test drug group to the mean volume of the untreated (control) group (T/C) and calculating percent tumor growth inhibition (% TGI).

[4] = system: LNCaP-FGC xenograft tumors; test: as above; assay type: in vivo, Male NSG mice; conditions: mouse LNCaP xenograft, oral
Description: as §2

[5] = Fourteen day rat toxicology study, maximum tolerated exposure; conditions: for AUC at 14 day: po
Description: Compounds were dosed orally once daily, in Sprague-Dawley rats.

[6] = Sprague-Dawley, rat, in vivo, 14 day
[7] = Sprague-Dawley, rat, in vivo, 30 mg/kg

| Molecule | pKi (BRD4 (BDI_K57-E168)) | pKi (BRD4 (BDII_E352-M457)) | further results |
| --- | --- | --- | --- |
| CCS(=O)(=O)Nc1ccc(Oc2ccc(F)cc2F)c(-c2cn(C)c(=O)c3[nH]ccc23)c1 [Compound X, N-[4-(2,4-difluorophenoxy)-3-(6-methyl-7-oxo-6,7-dihydro-1H-pyrrolo[2,3-c]pyridin-4-yl)phenyl]ethanesulfonamide, reference compound] | 8.68 | 9.02 | AUC ([1]; dose 1 mg/kg): 1200 ng·h/mL; % TGI, AML (SKM-1) ([2]; dose 1 mg/kg): 76%; AUC ([3]; dose 1 mg/kg): 1200 ng·h/mL; % TGI, Prostate (LNCaP) ([4]; dose 1 mg/kg): 64%; AUC at 14 day ([5]; Sprague-Dawley, rat, in vivo, 1 mg/kg): 725 ng·h/mL; AUC ratio (rat maximum tolerated exposure/mouse efficacious exposure) Prostate (LNCaP) ([5]; exposure margin versus mouse LNCaP xenograft): 0.6x; AUC ratio (rat maximum tolerated exposure/mouse efficacious exposure) AML (SKM-1) ([5]; exposure margin versus mouse SKM-1 xenograft): 0.6x |
| Cc1cccc(C)c1Oc1ccc(C(C)(C)O)cc1-c1cn(C)c(=O)c2[nH]c(C(=O)NC(C)(C)C)cc12 [Example 32, N-tert-butyl-4-[2-(2,6-dimethylphenoxy)-5-(2-hydroxypropan-2-yl)phenyl]-6-methyl-7-oxo-6,7-dihydro-1H-pyrrolo[2,3-c]pyridine-2-carboxamide] | 6.22 | 8.55 | AUC ([1]; dose 9.4 mg/kg): 5000 ng·h/mL; % TGI, AML (SKM-1) ([2]; dose 9.4 mg/kg): 76%; AUC ([3]; dose 30 mg/kg): 12600 ng·h/mL; % TGI, Prostate (LNCaP) ([4]; dose 30 mg/kg): 60%; AUC ratio (rat maximum tolerated exposure/mouse efficacious exposure) AML (SKM-1) [5, 6]: 14x; AUC ratio (rat maximum tolerated exposure/mouse efficacious exposure) Prostate (LNCaP) [5, 6]: 5.5x; AUC at 14 day [5, 7]: 69200 ng·h/mL |
| CCNC(=O)c1cc2c(-c3cc(C(C)(C)O)ccc3Oc3c(C)cc(F)cc3C)cn(C)c(=O)c2[nH]1 [Example 35, N-ethyl-4-[2-(4-fluoro-2,6-dimethylphenoxy)-5-(2-hydroxypropan-2-yl)phenyl]-6-methyl-7-oxo-6,7-dihydro-1H-pyrrolo[2,3-c]pyridine-2-carboxamide] | – | – | AUC ([1]; dose 4.7 mg/kg): 840 ng·h/mL; % TGI, AML (SKM-1) ([2]; dose 4.7 mg/kg): 74%; AUC ([3]; dose 4.7 mg/kg): 1100 ng·h/mL; % TGI, Prostate (LNCaP) ([4]; dose 4.7 mg/kg): 64%; AUC at 14 day [5, 7]: 27500 ng·h/mL |
| Cc1cccc(C)c1Oc1ccc(C(C)(C)O)cc1-c1cn(C)c(=O)c2[nH]c(C(N)=O)cc12 [Example 117, 4-[2-(2,6-dimethylphenoxy)-5-(2-hydroxypropan-2-yl)phenyl]-6-methyl-7-oxo-6,7-dihydro-1H-pyrrolo[2,3-c]pyridine-2-carboxamide] | 6.67 | 8.82 | – |
| Cc1cc(F)cc(Cl)c1Oc1ccc(C(C)(O)CO)cc1-c1cn(C)c(=O)c2[nH]c(C(=O)NC(C)(C)C)cc12 (stereo not drawn) [Example 118, N-tert-butyl-4-[2-(2-chloro-4-fluoro-6-methylphenoxy)-5-(1,2-dihydroxypropan-2-yl)phenyl]-6-methyl-7-oxo-6,7-dihydro-1H-pyrrolo[2,3-c]pyridine-2-carboxamide] | 5.86 | 7.98 | – |
| CCNC(=O)c1cc2c(-c3cc(C(C)(O)CO)ccc3Oc3c(C)cc(F)cc3Cl)cn(C)c(=O)c2[nH]1 (stereo not drawn) [Example 119, 4-[2-(2-chloro-4-fluoro-6-methylphenoxy)-5-(1,2-dihydroxypropan-2-yl)phenyl]-N-ethyl-6-methyl-7-oxo-6,7-dihydro-1H-pyrrolo[2,3-c]pyridine-2-carboxamide] | 6.46 | 8.66 | – |
| CNC(=O)c1cc2c(-c3cc(C(C)(C)O)ccc3Oc3c(C)cc(F)cc3C)cn(C)c(=O)c2[nH]1 [Example 120, 4-[2-(4-fluoro-2,6-dimethylphenoxy)-5-(2-hydroxypropan-2-yl)phenyl]-N,6-dimethyl-7-oxo-6,7-dihydro-1H-pyrrolo[2,3-c]pyridine-2-carboxamide] | 6.79 | 9.10 | – |
| Cc1cc(F)cc(C)c1Oc1ccc(C(C)(C)O)cc1-c1cn(C)c(=O)c2[nH]c(C(=O)NC3CC3)cc12 [Example 121, N-cyclopropyl-4-[2-(4-fluoro-2,6-dimethylphenoxy)-5-(2-hydroxypropan-2-yl)phenyl]-6-methyl-7-oxo-6,7-dihydro-1H-pyrrolo[2,3-c]pyridine-2-carboxamide] | 6.45 | 9.22 | – |
| CCNC(=O)c1cc2c(-c3cc(C4(O)CCC4)ccc3Oc3c(C)cc(F)cc3C)cn(C)c(=O)c2[nH]1 [Example 122, N-ethyl-4-[2-(4-fluoro-2,6-dimethylphenoxy)-5-(1-hydroxycyclobutyl)phenyl]-6-methyl-7-oxo-6,7-dihydro-1H-pyrrolo[2,3-c]pyridine-2-carboxamide] | 6.51 | 8.70 | – |
| CCNC(=O)c1cc2c(-c3cc(C4(O)COC4)ccc3Oc3c(C)cc(F)cc3C)cn(C)c(=O)c2[nH]1 [Example 123, N-ethyl-4-[2-(4-fluoro-2,6-dimethylphenoxy)-5-(3-hydroxyoxetan-3-yl)phenyl]-6-methyl-7-oxo-6,7-dihydro-1H-pyrrolo[2,3-c]pyridine-2-carboxamide] | 6.77 | 9.00 | – |
| CCNC(=O)c1cc2c(-c3cc(C(C)(C)O)cnc3Oc3c(C)cc(C(C)(C)O)cc3C)cn(C)c(=O)c2[nH]1 [Example 124, N-ethyl-4-{5-(2-hydroxypropan-2-yl)-2-[4-(2-hydroxypropan-2-yl)-2,6-dimethylphenoxy]pyridin-3-yl}-6-methyl-7-oxo-6,7-dihydro-1H-pyrrolo[2,3-c]pyridine-2-carboxamide] | 6.57 | 8.77 | – |
| Cc1cc(C(C)(C)O)cc(C)c1Oc1ncc(C(C)(C)O)cc1-c1cn(C)c(=O)c2[nH]c(C(=O)NC(C)(C)C)cc12 [Example 125, N-tert-butyl-4-{5-(2-hydroxypropan-2-yl)-2-[4-(2-hydroxypropan-2-yl)-2,6-dimethylphenoxy]pyridin-3-yl}-6-methyl-7-oxo-6,7-dihydro-1H-pyrrolo[2,3-c]pyridine-2-carboxamide] | 6.85 | 8.46 | – |
| CCNC(=O)c1cc2c(-c3cc(C(C)(O)CO)ccc3Oc3c(C)cccc3C(F)(F)F)cn(C)c(=O)c2[nH]1 (stereo not drawn) [Example 126, 4-{5-(1,2-dihydroxypropan-2-yl)-2-[2-methyl-6-(trifluoromethyl)phenoxy]phenyl}-N-ethyl-6-methyl-7-oxo-6,7-dihydro-1H-pyrrolo[2,3-c]pyridine-2-carboxamide] | 5.82 | 8.20 | – |
| Cc1cccc(C(F)(F)F)c1Oc1ccc(C(C)(O)CO)cc1-c1cn(C)c(=O)c2[nH]c(C(=O)NC(C)(C)C)cc12 (stereo not drawn) [Example 127, N-tert-butyl-4-{5-(1,2-dihydroxypropan-2-yl)-2-[2-methyl-6-(trifluoromethyl)phenoxy]phenyl}-6-methyl-7-oxo-6,7-dihydro-1H-pyrrolo[2,3-c]pyridine-2-carboxamide] | 5.18 | 7.69 | – |
| CCNC(=O)c1cc2c(-c3cc(C(C)(O)CCCO)ccc3Oc3c(C)cc(F)cc3C)cn(C)c(=O)c2[nH]1 (stereo not drawn) [Example 128, 4-[5-(2,5-dihydroxypentan-2-yl)-2-(4-fluoro-2,6-dimethylphenoxy)phenyl]-N-ethyl-6-methyl-7-oxo-6,7-dihydro-1H-pyrrolo[2,3-c]pyridine-2-carboxamide] | 6.33 | 8.89 | – |
| CCNC(=O)c1cc2c(-c3cc(C4(O)CCOCC4)ccc3Oc3c(C)cc(F)cc3C)cn(C)c(=O)c2[nH]1 [Example 129, N-ethyl-4-[2-(4-fluoro-2,6-dimethylphenoxy)-5-(4-hydroxyoxan-4-yl)phenyl]-6-methyl-7-oxo-6,7-dihydro-1H-pyrrolo[2,3-c]pyridine-2-carboxamide] | 6.19 | 8.64 | – |
| N-tert-butyl-4-[2-(2,6-dimethylphenoxy)-5-(2-hydroxypropan-2-yl)pyridin-3-yl]-6-methyl-7-oxo-6,7-dihydro-1H-pyrrolo[2,3-c]pyridine-2-carboxamide [Example 50] | 6.50 | 8.89 | – |
